Results taken from patent US20080262043A1, “Solid Crystalline Form of Pantoprazole Free Acid, Salts Derived Therefrom and Process for Their Preparation” (MEDICHEM, S.A., priority 2005, published 2008).

Test: Solid-state stability of the crystalline form upon drying under vacuum
Type: physicochemical
Conditions: drying under vacuum at approximately 40° C. for approximately 2 hours

change in the crystalline structure upon drying: no change in the crystalline structure
SMILES: COc1ccnc(C[S+]([O-])c2nc3cc(OC(F)F)ccc3[nH]2)c1OC (stereo not shown) [Form III pantoprazole free acid, 5-(difluoromethoxy)-2-[[(3,4-dimethoxy-2-pyridinyl)methyl]sulfinyl]-1H-benzimidazole]
